Assay: Solubility of ubiquinone-10 in aqueous methanol solution
Format: physicochemical
Conditions: aqueous methanol solutions of varying concentration at 20, 30, 50 and 70° C. (FIG. 1)
Text: Using a standard ubiquinone-10 (manufactured by Wako Pure Chemical Industries Co., Ltd.), the solubility of ubiquinone-10 is an aqueous methanol solution was examined in terms of the relation between the concentration of the solution and temperature.

COC1=C(OC)C(=O)C(C/C=C(\C)CC/C=C(\C)CC/C=C(\C)CC/C=C(\C)CC/C=C(\C)CC/C=C(\C)CC/C=C(\C)CC/C=C(\C)CC/C=C(\C)CCC=C(C)C)=C(C)C1=O [ubiquinone-10]
solubility of ubiquinone-10 in aqueous methanol solution: increased in proportion to the methanol concentration and the temperature of the aqueous methanol solution

From patent publication US20050153406A1, “Process for producing solution containing ubiquinone-10” (priority 2002, published 2005)
